Test results: patent publication US6706664B1, “Benzoxazole compounds, process for the preparation thereof and herbicides” (UBE Industries, Ltd., priority 1999, dated 2004)

Tests used:
Parameters in all cases: key: 0: normal development; 1: Less damaged; 2: Slightly damaged; 3: Moderately damaged; 4: Severely damaged; 5: All killed
annual bluegrass = experiment: Foliar spread test for upland field; type: in vivo, Poa annua; conditions: foliar spray 500 ppm, 3 weeks, rank vs non-treated
Summary of the method: (§1)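 Wettable powders at 500 ppm, with 0.5% surfactant, were sprayed uniformly over plants raised for roughly 2 weeks in glasshouse pots of volcanic ash soil. Herbicidal damage rated on a 0–5 scale (5 = all killed) after a further 3 weeks at an average 25 °C.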

flat sedge = experiment: Herbicidal test for paddy field; type: in vivo, Cyperus serotinus; conditions: paddy field pot, 500 g/ha dropwise at 1.5 leaf stage of barnyardgrass, 3 weeks, rank vs non-treated
Procedure: Wagner pots, each having an area of 1/5000 are, were packed with Ube soil (alluvial soil) and planted with seeds or tubers of young rice plant, barnyardgrass, bulrush, flat sedge and monochoria. Then, the pots were filled with water to a depth of 3 cm.
Each wettable powder of the desired compounds (I) shown in Table 1 prepared in accordance with Example 2 was diluted with water containing a surfactant (0.05%) and subjected to dropwise addition treatment by using pipet so that an effective concentration of the compound (I) in each herbicide became 500 g/ha at 1.5 leaf stage of barnyardgrass.
These plants were controlled in a glass house at an average temperature of 25° C. for 3 weeks, and then herbicidal effects thereof were investigated.
The herbicidal effects are evaluated according to the following 6 ranks as compared with non-treated district.
(0: normal development, 1: Less damaged, 2: Slightly damaged, 3: Moderately damaged, 4: Severely damaged, 5: All killed).

livid amaranth = experiment: Foliar spread test for upland field; type: in vivo, Amaranthus lividus; conditions: foliar spray 500 ppm, 3 weeks, rank vs non-treated
Summary of the method: as §1

bulrush = experiment: Herbicidal test for paddy field; type: in vivo, Scrips juncoides; conditions: paddy field pot, 500 g/ha dropwise at 1.5 leaf stage of barnyardgrass, 3 weeks, rank vs non-treated
Summary of the method: (§2)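 Scores ran from 0 (normal development) to 5 (all killed) against untreated pots, judged after 3 weeks in a glasshouse averaging 25° C. Compound, as wettable powder diluted in water with 0.05% surfactant, was applied dropwise into 3 cm-deep paddy water at 500 g/ha. Application was at the 1.5-leaf stage of barnyardgrass.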

velvetleaf [1] = experiment: Soil treatment test for upland field; type: in vivo, Abutilon theophrasti; conditions: 500 g/ha, glass house 25° C., 3 weeks
Summary of the method: (§3)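 Herbicidal effect graded on a 0–5 scale (0 normal development, 5 all killed) after 3 weeks in a glasshouse at about 25° C. Compound applied as a soil-surface spray at 500 g/ha right after sowing into Ube alluvial soil; spray water contained 0.05% surfactant.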

barnyardgrass [2] = experiment: Herbicidal test for paddy field; type: in vivo, Echinochloa crusgalli; conditions: paddy field pot, 500 g/ha dropwise at 1.5 leaf stage of barnyardgrass, 3 weeks, rank vs non-treated
Summary of the method: as §2

velvetleaf [3] = experiment: Foliar spread test for upland field; type: in vivo, Abutilon theophrasti; conditions: foliar spray 500 ppm, 3 weeks, rank vs non-treated
Summary of the method: as §1

Large crabgrass [4] = experiment: Foliar spread test for upland field; type: in vivo, Digitaria adscendens; conditions: foliar spray 500 ppm, 3 weeks, rank vs non-treated
Summary of the method: as §1

blackgrass = experiment: Soil treatment test for upland field; type: in vivo, Alopecurus aegualis; conditions: 500 g/ha, glass house 25° C., 3 weeks
Summary of the method: as §3

common lambsquartes = experiment: Foliar spread test for upland field; type: in vivo, Chenopodium album; conditions: foliar spray 500 ppm, 3 weeks, rank vs non-treated
Summary of the method: as §1

Large crabgrass [5] = experiment: Soil treatment test for upland field; type: in vivo, Digitaria adscendens; conditions: 500 g/ha, glass house 25° C., 3 weeks
Summary of the method: as §3

barnyardgrass [6] = experiment: Foliar spread test for upland field; type: in vivo, Echinochloa crusgalli; conditions: foliar spray 500 ppm, 3 weeks, rank vs non-treated
Summary of the method: as §1

barnyardgrass [7] = experiment: Soil treatment test for upland field; type: in vivo, Echinochloa crusgalli; conditions: 500 g/ha, glass house 25° C., 3 weeks
Summary of the method: as §3

soybean = experiment: Foliar spread test for upland field; type: in vivo; conditions: foliar spray 500 ppm, 3 weeks, rank vs non-treated
Summary of the method: as §1

cotton = experiment: Foliar spread test for upland field; type: in vivo; conditions: foliar spray 500 ppm, 3 weeks, rank vs non-treated
Summary of the method: as §1

CCCC(Oc1cccc(C(F)(F)F)c1)c1nc2cc(C#N)c(Cl)cc2o1 (centres unmarked) [Compound 532]
3: Effects Velvetleaf (velvetleaf [3])
4: Effects Annual bluegrass (annual bluegrass) | Effects Large crabgrass (Large crabgrass [4])
2: Effect Flat sedge (flat sedge) | Effects Barnyardgrass (barnyardgrass [6])
5: Effects Livid amaranth (livid amaranth) | Effect Bulrush (bulrush) | Effects Velvetleaf (velvetleaf [1]) | Effect Barnyardgrass (barnyardgrass [2]) | Effects Blackgrass (blackgrass) | Effects Common lambsquarters (common lambsquartes) | Effects Large crabgrass (Large crabgrass [5]) | Effects Barnyardgrass (barnyardgrass [7])

CCC(Oc1ccc(F)c(C(F)(F)F)c1)c1nc2cc([N+](=O)[O-])ccc2o1 (centres unmarked) [Compound 177]
2: Effects Large crabgrass (Large crabgrass [4]) | Effects Barnyardgrass (barnyardgrass [6])
4: Effects Annual bluegrass (annual bluegrass) | Effects Velvetleaf (velvetleaf [3]) | Effects Common lambsquarters (common lambsquartes)
5: Effects Livid amaranth (livid amaranth) | Effect Bulrush (bulrush) | Effects Velvetleaf (velvetleaf [1]) | Effect Barnyardgrass (barnyardgrass [2]) | Effects Blackgrass (blackgrass) | Effects Large crabgrass (Large crabgrass [5]) | Effects Soybean (soybean)
3: Effect Flat sedge (flat sedge) | Effects Cotton (cotton) | Effects Barnyardgrass (barnyardgrass [7])

CCC(Oc1cccc(C(F)(F)F)c1)c1nc2cc(Br)ccc2o1 (centres unmarked) [Compound 166]
3: Effect Barnyardgrass (barnyardgrass [2]) | Effects Large crabgrass (Large crabgrass [4]) | Effects Blackgrass (blackgrass)
1: Effects Barnyardgrass (barnyardgrass [6])
2: Effects Velvetleaf (velvetleaf [3]) | Effects Cotton (cotton)
5: Effects Large crabgrass (Large crabgrass [5])
4: Effect Flat sedge (flat sedge) | Effects Livid amaranth (livid amaranth) | Effects Common lambsquarters (common lambsquartes) | Effects Soybean (soybean) | Effects Barnyardgrass (barnyardgrass [7])

CCC(Oc1cccc(C(F)(F)F)c1)c1nc2cc(C#N)c(Cl)cc2o1 (centres unmarked) [Compound 529]
5: Effects Livid amaranth (livid amaranth) | Effect Bulrush (bulrush) | Effects Velvetleaf (velvetleaf [1]) | Effect Barnyardgrass (barnyardgrass [2]) | Effects Blackgrass (blackgrass) | Effects Common lambsquarters (common lambsquartes) | Effects Large crabgrass (Large crabgrass [5]) | Effects Barnyardgrass (barnyardgrass [7])
4: Effects Annual bluegrass (annual bluegrass) | Effect Flat sedge (flat sedge) | Effects Large crabgrass (Large crabgrass [4])
3: Effects Velvetleaf (velvetleaf [3]) | Effects Barnyardgrass (barnyardgrass [6])

CCC(Oc1ccc(Cl)c(C(F)(F)F)c1)c1nc2cc(F)ccc2o1 (centres unmarked) [Compound 441]
1: Effects Annual bluegrass (annual bluegrass) | Effects Velvetleaf (velvetleaf [1])
5: Effect Barnyardgrass (barnyardgrass [2]) | Effects Large crabgrass (Large crabgrass [5]) | Effects Barnyardgrass (barnyardgrass [7])
2: Effect Flat sedge (flat sedge) | Effects Large crabgrass (Large crabgrass [4]) | Effects Barnyardgrass (barnyardgrass [6])
3: Effects Livid amaranth (livid amaranth) | Effects Blackgrass (blackgrass) | Effects Common lambsquarters (common lambsquartes) | Effects Soybean (soybean) | Effects Cotton (cotton)

CCC(Oc1cccc(C(F)(F)F)c1)c1nc2cc(F)ccc2o1 (centres unmarked) [Compound 120]
4: Effect Barnyardgrass (barnyardgrass [2]) | Effects Common lambsquarters (common lambsquartes) | Effects Barnyardgrass (barnyardgrass [7])
5: Effects Livid amaranth (livid amaranth) | Effects Large crabgrass (Large crabgrass [5]) | Effects Soybean (soybean)
3: Effect Bulrush (bulrush) | Effects Velvetleaf (velvetleaf [1]) | Effects Blackgrass (blackgrass)
1: Effects Annual bluegrass (annual bluegrass) | Effects Large crabgrass (Large crabgrass [4]) | Effects Barnyardgrass (barnyardgrass [6])
2: Effect Flat sedge (flat sedge) | Effects Cotton (cotton)

CCC(Oc1ccc(F)c(C(F)(F)F)c1)c1nc2cc(Br)ccc2o1 (centres unmarked) [Compound 165]
3: Effect Flat sedge (flat sedge) | Effects Velvetleaf (velvetleaf [3]) | Effects Large crabgrass (Large crabgrass [4]) | Effects Common lambsquarters (common lambsquartes) | Effects Cotton (cotton)
2: Effects Annual bluegrass (annual bluegrass) | Effects Barnyardgrass (barnyardgrass [6])
5: Effects Large crabgrass (Large crabgrass [5]) | Effects Soybean (soybean) | Effects Barnyardgrass (barnyardgrass [7])
1: Effects Velvetleaf (velvetleaf [1])
4: Effects Livid amaranth (livid amaranth) | Effect Barnyardgrass (barnyardgrass [2]) | Effects Blackgrass (blackgrass)

CCC(Oc1cccc(OC(F)(F)F)c1)c1nc2cc(C#N)c(C#N)cc2o1 (centres unmarked) [Compound 527]
5: Effects Annual bluegrass (annual bluegrass) | Effects Livid amaranth (livid amaranth) | Effects Velvetleaf (velvetleaf [1]) | Effects Common lambsquarters (common lambsquartes) | Effects Large crabgrass (Large crabgrass [5])
2: Effects Large crabgrass (Large crabgrass [4])
3: Effect Flat sedge (flat sedge) | Effect Bulrush (bulrush) | Effects Velvetleaf (velvetleaf [3])
4: Effect Barnyardgrass (barnyardgrass [2]) | Effects Blackgrass (blackgrass) | Effects Barnyardgrass (barnyardgrass [7])

CCC(Oc1cccc(C(F)(F)F)c1)c1nc2cc(C#N)ccc2o1 (centres unmarked) [Compound 190]
3: Effect Flat sedge (flat sedge) | Effects Velvetleaf (velvetleaf [1]) | Effects Large crabgrass (Large crabgrass [4]) | Effects Blackgrass (blackgrass) | Effects Barnyardgrass (barnyardgrass [6]) | Effects Cotton (cotton)
4: Effects Annual bluegrass (annual bluegrass) | Effects Velvetleaf (velvetleaf [3]) | Effects Common lambsquarters (common lambsquartes)
5: Effects Livid amaranth (livid amaranth) | Effect Barnyardgrass (barnyardgrass [2]) | Effects Large crabgrass (Large crabgrass [5]) | Effects Soybean (soybean) | Effects Barnyardgrass (barnyardgrass [7])

CCC(Oc1ccc(F)c(C(F)(F)F)c1)c1nc2cc(F)ccc2o1 (centres unmarked) [Compound 119, 1-(5-fluorobenzoxazol-2-yl)-1-(4-fluoro-3-(trifluoromethyl)phenoxy)propane]
4: Effects Livid amaranth (livid amaranth) | Effects Common lambsquarters (common lambsquartes)
1: Effects Large crabgrass (Large crabgrass [4]) | Effects Barnyardgrass (barnyardgrass [6]) | Effects Cotton (cotton)
3: Effect Barnyardgrass (barnyardgrass [2]) | Effects Blackgrass (blackgrass)
5: Effects Large crabgrass (Large crabgrass [5]) | Effects Barnyardgrass (barnyardgrass [7])
2: Effect Flat sedge (flat sedge) | Effects Velvetleaf (velvetleaf [3]) | Effects Soybean (soybean)

CCC(Oc1cccc(C(F)(F)F)c1)c1nc2cc(F)c(C(F)(F)F)cc2o1 (centres unmarked) [Compound 471]
3: Effects Annual bluegrass (annual bluegrass) | Effects Velvetleaf (velvetleaf [3])
5: Effect Flat sedge (flat sedge) | Effects Livid amaranth (livid amaranth) | Effects Velvetleaf (velvetleaf [1]) | Effect Barnyardgrass (barnyardgrass [2]) | Effects Large crabgrass (Large crabgrass [4]) | Effects Blackgrass (blackgrass) | Effects Common lambsquarters (common lambsquartes) | Effects Large crabgrass (Large crabgrass [5]) | Effects Barnyardgrass (barnyardgrass [7])
2: Effect Bulrush (bulrush)

CCCC(Oc1cccc(C(F)(F)F)c1)c1nc2cc(C#N)c(C#N)cc2o1 (centres unmarked) [Compound 317]
3: Effect Bulrush (bulrush) | Effect Barnyardgrass (barnyardgrass [2]) | Effects Velvetleaf (velvetleaf [3]) | Effects Barnyardgrass (barnyardgrass [7])
5: Effects Annual bluegrass (annual bluegrass) | Effect Flat sedge (flat sedge) | Effects Livid amaranth (livid amaranth) | Effects Velvetleaf (velvetleaf [1]) | Effects Blackgrass (blackgrass) | Effects Common lambsquarters (common lambsquartes) | Effects Large crabgrass (Large crabgrass [5])

CCCC(Oc1ccc(F)c(C(F)(F)F)c1)c1nc2cc(C#N)c(Cl)cc2o1 (centres unmarked) [Compound 533]
2: Effect Flat sedge (flat sedge) | Effects Velvetleaf (velvetleaf [3]) | Effects Barnyardgrass (barnyardgrass [6])
5: Effects Livid amaranth (livid amaranth) | Effects Velvetleaf (velvetleaf [1]) | Effect Barnyardgrass (barnyardgrass [2]) | Effects Large crabgrass (Large crabgrass [5])
3: Effects Large crabgrass (Large crabgrass [4]) | Effects Barnyardgrass (barnyardgrass [7])
4: Effects Annual bluegrass (annual bluegrass) | Effects Blackgrass (blackgrass) | Effects Common lambsquarters (common lambsquartes)
